Results on one compound are retold here after article PMC9499467, “Phenanthroindolizidine Alkaloids Isolated from Tylophora ovata as Potent Inhibitors of Inflammation, Spheroid Growth, and Invasion of Triple-Negative Breast Cancer” (International Journal of Molecular Sciences, 2022).

The test system of data set [1] is NFκB. The experiment in a line: NFκB inhibition assay (24 h), NFκB-dependent firefly luciferase reporter. Type of data set: cell-based. The note with it: Homo sapiens; NFκB-MDA-MB-231-firefly cells, 24-h treatment, 20 ng/mL TNFα, mean ± SD; read-out: NFκB Inhibition 24 h IC50. As to the method:
On day 1, 3 × 10^4 NFκB MDA-MB-231-firefly cells were seeded into white 96 well plates (Greiner; #655098). On day 2, the medium was replaced with starvation medium and the cells were pre-incubated for 20 min with either 100 µL of DMSO (Roth; #A994.1) alone at maximal 0.1%, or with the final concentration of the diluted compounds (Table 3). To activate NFκB signaling, cells were stimulated with 20 ng/mL TNFα (Peprotech, Hamburg, Germany; #300-01A). Cell lysis was performed in 20 µL 1× cell lysis buffer according to the manufacturer’s instruction for the Luciferase Assay System (Promega #E1500). NFκB-dependent luminescence was determined as relative light units (RLU) using the microplate reader Spark® (Tecan).

The subject of data set [2] is NFκB. The experiment in a line: NFκB inhibition assay (2 h), NFκB-dependent nanoluc luciferase reporter. The data set is classed as cell-based, human. To be noted: Homo sapiens; NFκB-MDA-MB-231-nanoluc cells, 2-h treatment, mean ± SD; read-out: NFκB Inhibition 2 h IC50. How it is done: Experiments were performed according to the published protocol. On day 1, 4 × 10^4 NFκB-MDA-MB-231-nanoluc cells were seeded into white 96 well plates (Greiner; #655098). On day 2, the medium was replaced with starvation medium and the cells were pre-incubated for 20 min with either 100 µL of DMSO (Roth; #A994.1) alone at a concentration of maximal 0.1% or with the final concentration of the diluted compounds (Table 3). To activate NFκB signaling, cells were stimulated with 1 µg/mL LPS (Sigma-Aldrich; #L2630) beforehand. NFκB-dependent luciferase activity was measured according to the manufacturer`s protocol for the Nano-Glo Luciferase Assay System (Promega, Mannheim, Germany; #N1110). NFκB-dependent luminescence was determined as relative light units (RLU) using the microplate reader Spark® (Tecan, Männedorf, Switzerland).
Background: A reporter such as luciferase makes a cellular process visible.

For data set [3], the system named is MDA-MB-468-UnaG. The experiment in a line: Cell cycle studies (PI-DNA flow cytometry) in MDA-MB-468-UnaG. Type of data set: cell-based. To be noted: normoxia. As to the method: To investigate cell cycle progression in the presence of compound (1s) or paclitaxel (Santa Cruz Biotechnology; #sc-201439), we quantified the DNA content in the cell. On day 1, the cells were seeded in 1 mL into a 24 well plate (Greiner; #662160). On day 2, MDA-MB-468-UnaG were pre-treated either without (normoxia) or with 100 µM CoCl2 (hypoxia) (Sigma-Aldrich; #C8661) for 24 h before compounds were applied. On day 2 for MDA-MB-231 or on day 3 for MDA-MB-468-UnaG, paclitaxel was applied at the concentrations 15 nM, 37 nM, and 100 nM, and compound (1s) was applied at concentrations ranging from 2 nM to 1000 nM. Post-treatment cells were washed in 1× PBS (Thermo Fisher Scientific; #14190); fixed in 70% (v/v) ethanol overnight at 4 °C; washed again in 1× PBS; and, finally, DNA was stained for 15 min at 37 °C in the presence of 10 µg/mL propium iodide (PI; Sigma-Aldrich; #4864) and 100 µg/mL RNase A (Thermo Fisher Scientific; #EN0531) dissolved in 0.1% triton™ X-100 (Sigma-Aldrich; #X100), dissolved in PBS. The fluorescence signal resulting from PI-DNA complex formation was recorded using the flow cytometer CytoFlex (Beckmann Coulter, Krefeld, Germany). The cell cycle phase population was determined based on the DNA content in a set of chromosomes (n) in a cell using the integrated software CytExpert (Beckmann Coulter): sub-G0/G1 (<2n), G0/G1 (2n), S (>2n, <4n), G2/M (4n) or hyperploid cells (>4n) (see Figure S10).
For orientation: A flow cytometer gives signals particle by particle.

Data set [4] has as its system 3D co-culture spheroids of MDA-MB-231 and primary murine CAFs. As to the kind of experiment: 3D cell viability (ATP content) in TNBC co-culture spheroids. Type of data set: cell-based, human MDA-MB-231. The note with it: Mus musculus, MDA-MB-231. As to the method: On day 1, 3000 cells were seeded into a low-attachment 96 well plate (Greiner; #650970). […] Cell viability was determined based on the ATP content in viable cells according to the manufacturer`s instructions (Promega #G9682). Co-culture spheroids were generated for 72 h before they were grown for another 72 h with or without exposure to the compounds. […] Cell viability-dependent luminescence was determined as relative light units (RLU) using the microplate reader Spark® (Tecan).

Data set [5] has as its system MDA-MB-468-UnaG. The experiment in a line: 2D cell viability in MDA-MB-468-UnaG under normoxia or CoCl2-simulated hypoxia.
Another data set deals with MDA-MB-231. As to the kind of experiment: 2D cell viability (PrestoBlue resazurin) in MDA-MB-231. The note with it: Homo sapiens. Type of data set: cell-based, human. As to the method:
Cell viability was determined based on resazurin-reduction in viable cells according to the PrestoBlue^TM Assay. On day 1, MDA-MB-231 (1.5 × 10^4 cells per well or 7.5 × 10^3 cells per well) were seeded into black 96 well plates (Greiner; #655090) in a total volume of 100 µL. On day 2, the compounds or DMSO (Roth; #A994.1) alone at maximal 0.1% were applied (final concentrations after serial dilution shown in Table 3). An amount of 20 µM staurosporine (Sigma-Aldrich; #S5921) served as a positive control. On day 3, the PrestoBlue^TM reagent (Invitrogen^TM, Darmstadt, Germany; #A13262) was applied according to the manufacturer`s instructions. Finally, cell viability-dependent fluorescence was recorded in relative fluorescence units (RFU) with excitation/emission (Exλ/Emλ) at 535/590 nm or 560/590 nm, using the microplate reader Spark® (Tecan).

Data set [6] deals with 3D co-culture spheroids of MDA-MB-231 and primary murine CAFs. The experiment in a line: 3D growth studies, spheroid size of co-culture spheroids. The data set is classed as cell-based, human MDA-MB-231. To be noted: 100 nM, 72 h. How it is done:
To emulate the TNBC microenvironment, 3D spheroids composed of MDA-MB-231 and CAFs at a ratio of 1:2 in a collagen-based matrix were generated. The culture medium of both cell lines was mixed (DMEM:RPMI 1640 (1:1) + 12.5% FCS + 1% PS) and supplemented with 0.05 mg/mL collagen type I (Thermo Fisher Scientific; #A1048301). On day 1, 3000 cells were seeded into a low-attachment 96 well plate (Greiner; #650970). Spheroids were grown for 72 h before proceeding with compound treatment on day 4, and analysis on day 7 according to the “Spheroid immunostaining”, “3D cell viability”, or “3D growth” studies presented in the results section.
Co-culture spheroids were generated for 72 h before they were exposed to either DMSO (Roth; #A994.1) alone at maximal 0.1%, 100 nM paclitaxel (Santa Cruz Biotechnology; #sc-201439), or 100 nM of compound (1) for another 72 h. At least three spheroids per treatment group were analyzed. For that purpose, brightfield images of the spheroids were acquired at 100× g magnification using the microscope Axio Vert.A1 (Zeiss). The spheroid surface area was quantified in brightfield images using Fiji (open-source software; version 1.52i) and was further defined as spheroid size. In each individual experiment spheroid size was normalized to the smallest (which was set to 0%) and to the largest spheroids (which was set to 100%).

Like-named read-outs stand apart in the source and are kept apart here.

`CC(=O)O[C@H]1C(=O)[C@@]2(C)[C@H]([C@H](OC(=O)c3ccccc3)[C@]3(O)C[C@H](OC(=O)[C@H](O)[C@@H](NC(=O)c4ccccc4)c4ccccc4)C(C)=C1C3(C)C)[C@]1(OC(C)=O)CO[C@@H]1C[C@@H]2O` [Paclitaxel, paclitaxel, reference compound]: the IC50 was above 1 µM in the data set on NFκB [1]; above 1 µM in the data set with NFκB [2]; 0.043 ± 0.0143 µM in data set [4] (3D co-culture spheroids, 72 h treatment, mean ± SD (n = 3), read-out: Reduction of Cell Viability 72 h IC50); 0.0428 µM in data set [4] (co-culture spheroids, 72 h, one individual experiment (Figure S3b), read-out: IC50 of representative dose-response, 3D cell viability); above 1 µM in the data set on MDA-MB-468-UnaG [5] (24 h, read-out: cell viability IC50, hypoxia); 0.0077 µM in the data set with MDA-MB-468-UnaG [5] (read-out: cell viability IC50, normoxia). The IC50 in the data set with MDA-MB-231 (MDA-MB-231 2D monolayer, 24 h post-treatment, mean ± SD, read-out: Reduction of Cell Viability 24 h IC50) is 0.0374 ± 0.0086 µM; in the data set with MDA-MB-231 (MDA-MB-231, 24 h, one individual experiment (Figure S3a), read-out: IC50 of representative dose-response, 2D cell viability), 0.0369 µM. The “sub-G0/G1 population” value in the data set on MDA-MB-468-UnaG [3] (48 h) is “increase in the sub-G0/G1 population”. Moreover, the “cell cycle phase population” value with MDA-MB-468-UnaG [3] ((1s) 20 nM 72 h, paclitaxel within 24 h) was “significantly induces a G2/M arrest”. For the same compound, the “decrease of cytotoxic effects by hypoxia (factor)” value in the data set with MDA-MB-468-UnaG [5] (hypoxia vs normoxia, MDA-MB-468-UnaG) was at least 100. For the same compound, in data set [6], the “reduction of spheroid growth compared to untreated spheroids” value is reported as 25%.

By IC50 is commonly meant the concentration at which inhibition is half-maximal.
